# According to US20260055110A1 (Azura Ophthalmics Ltd., priority 2021, published 2026):
# Columns and labels:
# [1] = target: T1, glucocorticoid receptor (GR) (Homo sapiens, UniProt P04150); assay: Glucocorticoid Binding Assay, GR (h) (agonist radioligand); conditions: IM9 cytosol, 3H-dexamethasone competitive binding
# T1 construct: by mixing 1 mg of IM9 cytosol; host or cells: IM9 human lymphoblast cell cytosol
# T1 sequence (P04150 1-777): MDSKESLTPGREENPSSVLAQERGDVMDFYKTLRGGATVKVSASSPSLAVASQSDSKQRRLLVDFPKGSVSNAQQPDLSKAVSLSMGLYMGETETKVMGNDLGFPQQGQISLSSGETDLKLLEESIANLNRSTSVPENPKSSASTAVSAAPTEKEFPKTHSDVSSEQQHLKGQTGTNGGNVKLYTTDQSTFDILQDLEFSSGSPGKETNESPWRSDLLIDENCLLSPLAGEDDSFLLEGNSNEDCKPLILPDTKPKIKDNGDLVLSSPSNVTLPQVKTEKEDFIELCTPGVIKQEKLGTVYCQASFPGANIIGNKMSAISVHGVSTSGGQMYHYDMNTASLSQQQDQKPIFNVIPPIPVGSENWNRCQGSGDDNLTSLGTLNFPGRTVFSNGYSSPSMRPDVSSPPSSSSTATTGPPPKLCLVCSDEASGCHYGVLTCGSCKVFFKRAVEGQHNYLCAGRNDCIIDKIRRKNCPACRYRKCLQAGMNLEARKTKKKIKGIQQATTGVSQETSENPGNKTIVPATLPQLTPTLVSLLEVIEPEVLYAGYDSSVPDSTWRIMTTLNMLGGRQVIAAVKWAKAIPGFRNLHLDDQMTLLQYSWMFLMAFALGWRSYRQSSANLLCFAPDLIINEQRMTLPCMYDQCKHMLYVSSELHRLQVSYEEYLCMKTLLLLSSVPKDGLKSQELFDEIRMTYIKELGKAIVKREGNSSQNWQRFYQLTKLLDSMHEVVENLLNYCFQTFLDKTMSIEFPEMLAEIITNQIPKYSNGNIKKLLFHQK
# Experimental: GR (h) (agonist radioligand) assay performed by Eurofins Cerep, France using a method similar to the one described hereinbelow.
# The human lymphoblast cell line IM9 is used as a source of the soluble glucocorticoid receptor (GR). The cells are grown to densities of 1 to 10×10^5 cells per milliliter in RPMI 1640 media containing 10% fetal bovine serum, penicillin (100 U/ml), streptomycin (100 μg/ml), and 2 mM L-glutamine at […] and 7% CO2 in a humidified incubator. The IM9 cells are harvested from the media by centrifugation for 10 minutes at 1500 g. Cells are washed in 12 volumes of Dulbecco's phosphate-buffered saline (PBS) and re-pelleted. Washed cells are resuspended in five to six volumes (per volume of packed cells) of homogenization buffer (10 mM TES, 10 mM sodium molybdate, 1 mM EDTA, pH 7.4, 20 mM 2-mercaptoethanol, and 10% glycerol), and the cells are broken by nitrogen cavitation using 2×15 minutes at 600 to 750 psi nitrogen in the N2 cavitator at 0° C. Cell disruption is confirmed by Hoffman contrast microscopy using a Nikon Diaphot. The broken cell preparation is then centrifuged at 27,000 g for 15 minutes, and the resultant supernatant was centrifuged at 103,000 g for 60 minutes at 4° C. The amount of protein in the supernatant fraction is determined using a BCA assay kit with a bovine serum albumin standard. Aliquots of the supernatant fraction are snap frozen in a dry ice-acetone bath and stored at −70° C. Competitive binding assays are done in duplicate in homogenization buffer (total volume of […]) by mixing 1 mg of IM9 cytosol, 0.05/ρCi (3 nM) of ^3H-dexamethasone, and Compounds described herein (10^−5 to 10^−11 M). After incubation at 0° C. for 16 to 18 hours, the assay is stopped by the addition of […] of a charcoal-dextran mixture (2% activated charcoal, 0.5% dextran in 10 mM Tris, 1 mM EDTA, pH 7.4). The assay mixture is further incubated at 0° C. for 10 minutes before being centrifuged for 5 minutes at 8200 g. A 100-μl sample of the supernatant (protein-bound steroid fraction) is assayed for radioactivity by liquid scintillation spectrometry, and the IC50 values were determined graphically.
# In some instances, an ester is active in the glucocorticoid binding assay. In some instances, an ester retains activity, such as when attached to a keratolytic agent (or a radical thereof), in the glucocorticoid binding assay.
# Rabbit Cornea Esterase = assay: Rabbit Cornea Homogenate Stability Assay (Rabbit Cornea Esterase Assay); type: in vitro ADME
# Experimental: Example 1: Rabbit Cornea Homogenate Stability Assay […]
# Three to four rabbit corneas (e.g., New Zealand Whites (NZW) or Dutch Belted (DB)) of approx. 50 mg each were sliced and scraped with a scalpel and tweezers until reduced to small (1-3 mm), thin pieces. These were transferred into a glass vial containing approximately 2 mL of cold DPBS pH 7.4 buffer.
# Sample was cooled intermittently on ice and shear homogenized for 3 minutes, then centrifuged for 3 min at 13,000 g. The supernatant was pipetted off into a vial, and total protein concentration determined at 280 nm. Sample was stored at −78° C.
# 10 mM Compound DMSO stocks were diluted to 10 μM in a glass vial: 10 μL of 10 mM Compound stock was added to 9,990 μl 50 mM DPBS, pH 7.4 buffer. Esterase homogenate was diluted to 300 ng/μl and 900 ng/μL in DPBS.
# A heater shaker was set to 37° C. Into a suitable 96 well plate (Run Plate), 70 μL of 300 or 900 ng/μl esterase homogenate was pipetted into two rows as compounds were analyzed in duplicate (2 min, 5 min, 10 min, 20 min and 45 min). The plate was sealed and then warmed at 37° C. for 5 min.
# Two 96 deep-well plates were put on ice (Kill Plates). To these, 990 μL of 50:50 MeCN—H2O were added to required rows, labelled 0 min 2 min, 5 min, 10 min, 20 min and 45 min. The plates were covered to minimize evaporation.
# To both rows of the Run Plate, 70 μL of 10 μM compound solution was added. At the appropriate time point, 10 μL of the assay mixture was added to the matching kill plate well containing 990 μL of 50:50 cold MeCN—H2O. Samples were analyzed as soon as practicable by UPLC-MS (Waters Xevo TQ-S).
# A heater shaker was set to 37° C. Into a suitable 96 well plate (Run Plate), 80 μL of 300 or 900 ng/μL esterase homogenate was pipetted into two rows as compounds were analyzed in duplicate (2 min, 5 min, 10 min, 20 min and 45 min). The plate was sealed and then warmed at 37° C. for 5 min.
# Two 96 shallow-well plates were placed on ice (Kill Plates). To these, 180 μL of 60:40 MeCN-H2O+0.1% acetic acid are added to required rows. The plates were sealed to minimize evaporation.
# To both rows of the Run Plate, 80 μL of 10 μM compound solution was added. At the appropriate time point, 20 μL of the assay mixture was added to the matching kill plate well containing 180 μL of 60:40 cold MeCN-H2O+0.1% acetic acid. For lipoic acid analysis, samples were analyzed as soon as practicable by LCMS (Waters Xevo TQ-S). For parent conjugate and parent analysis the samples are diluted further 1 in 10: 20 μL supernatant is added to 180 μL of 50:50 MeCN—H2O.
# [2] = Aqueous Hydrolysis Stability Assay; conditions: DPBS pH 7.4, 37° C.
# Experimental: Example 2: Aqueous Hydrolysis Stability Assay
# Determination of aqueous stability of the test compounds was performed using UPLC-MS. A test compound 10 mM stock solution was prepared in DMSO. 10 μL of the DMSO stock solution was dissolved in 990 μL of DPBS pH 7.4 buffer to prepare a 100 μM stock. A further dilution was made by dissolving 75 μl of 100 μM stock into 225 μL of DPBS. Final DMSO concentration is 0.25%. The solution is kept at 37° C. and injected without delay into the LCMS (Waters Xevo TQ-). Additional injections were performed at appropriate time points.
# Half-life (T1/2) of the parent conjugate was calculated using the peak area or measured concentration of the parent conjugate at each time point in the linear region of the log—linear plot.
# [3] = rabbit cornea homogenate 0.15 mg/mL total protein, NZW, 37° C.
# [4] = rabbit cornea homogenate 0.45 mg/mL total protein, NZW, 37° C.
# [5] = rabbit cornea homogenate 0.15 mg/mL total protein, DB, 37° C.
# [6] = rabbit cornea homogenate 0.45 mg/mL total protein, DB, 37° C.
Esterase (0.15 mg/mL) % parent released after 45 min (Rabbit Cornea Esterase; [3]),Esterase (0.45 mg/mL) % parent released after 45 min (Rabbit Cornea Esterase; [4]),SMILES,other results
–,–,"C[C@@H]1C[C@H]2[C@@H]3C[C@H](F)C4=CC(=O)C=C[C@]4(C)[C@@]3(F)[C@@H](O)C[C@]2(C)[C@@]1(OC(=O)CCCC[C@@H]1CCSS1)C(=O)O [Chemical Synthesis Example 68, (6S,8S,9R,10S,11S,13S,14S,16R,17R)-17-((5-((R)-1,2-Dithiolan-3-yl)pentanoyl)oxy)-6,9-difluoro-11-hydroxy-10,13,16-trimethyl-3-oxo-6,7,8,9,10,11,12,13,14,15,16,17-dodecahydro-3H-cyclopenta[a]phenanthrene-17-carboxylic acid]",EC50 [1]: 21 nM
B (NZW) (25% to 50%),B (NZW) (25% to 50%),C=CC(=O)N1C[C@H](Nc2ncnc3c2ccn3COC(=O)CCCC[C@@H]2CCSS2)CC[C@@H]1C [Compound 12],Aqueous Stability (DPBS) % parent released after t min ([2]; t = 44): A (t = 44) (<25%)
B (NZW) (25% to 50%),C (NZW) (51% to 75%),CC(OC(=O)CCCC[C@@H]1CCSS1)n1ccc2c(-c3cnn([C@H](CC#N)C4CCCC4)c3)ncnc21 (stereo partly drawn) [Compound 38],Aqueous Stability (DPBS) % parent released after t min ([2]; t = 48): A (t = 48) (<25%)
–,–,"CC(=O)N[C@@H](CS)C(=O)O[C@]1(C(=O)OCC#N)[C@H](C)C[C@H]2[C@@H]3C[C@H](F)C4=CC(=O)C=C[C@]4(C)[C@@]3(F)[C@@H](O)C[C@@]21C [Compound 73B, Cyanomethyl (6S,8S,9R,10S,11S,13S,14S,16R,17R)-17-((acetyl-L-cysteinyl)oxy)-6,9-difluoro-11-hydroxy-10,13,16-trimethyl-3-oxo-6,7,8,9,10,11,12,13,14,15,16,17dodecahydro-3H-cyclopenta[a]phenanthrene-17-carboxylate]","Esterase (0.15 mg/mL) % parent released after 45 min (Rabbit Cornea Esterase; Table 13, rabbit cornea homogenate 0.15 mg/mL, rabbit breed not given): A (<25%); Esterase (0.45 mg/mL) % parent released after 45 min (Rabbit Cornea Esterase; Table 13, rabbit cornea homogenate 0.45 mg/mL, rabbit breed not given): A (<25%)"
–,–,CC(C)OC(=O)OC(C)n1ccc2c(-c3cnn([C@H](CC#N)C4CCCC4)c3)ncnc21 (stereo partly drawn) [Compound 50],Esterase (0.15 mg/mL) % parent released after 45 min (Rabbit Cornea Esterase; [5]): D (DB) (>75%); Esterase (0.45 mg/mL) % parent released after 45 min (Rabbit Cornea Esterase; [6]): D (DB) (>75%); Aqueous Stability (DPBS) % parent released after t min ([2]; t = 44): B (t = 44) (25% to 50%)
C (NZW) (51% to 75%),C (NZW) (51% to 75%),CNS(=O)(=O)CC1CCC(N(C)c2ncnc3c2ccn3COC(=O)CCCC[C@@H]2CCSS2)CC1 (stereo partly drawn) [Compound 31],Aqueous Stability (DPBS) % parent released after t min ([2]; t = 44): A (t = 44) (<25%)
–,–,C[C@]12C=CC(=O)C=C1CC[C@H]1[C@@H]3CC[C@](OC(=O)CCCC[C@@H]4CCSS4)(C(=O)OCCl)[C@@]3(C)C[C@H](O)[C@@]12F,EC50 [1]: 0.35 nM
A (NZW) (<25%),A (NZW) (<25%),C=CC(=O)N1C[C@H](Nc2ncnc3c2ccn3C(=O)OC(C)C)CC[C@@H]1C [Compound 23],–
–,–,C[C@]12C=CC(=O)C=C1CC[C@@H]1[C@@H]2[C@@H](O)C[C@@]2(C)[C@H]1CC[C@]2(OC(=O)CCCC[C@@H]1CCSS1)C(=O)OCCl [Compound 59],"Esterase (0.9 mg/mL) T1/2 (45 min) (Rabbit Cornea Esterase; rabbit cornea homogenate 0.9 mg/mL, NZW, 37° C.): 22.6 (NZW) min; Esterase (2.0 mg/mL) T1/2 (45 min) (Rabbit Cornea Esterase; rabbit cornea homogenate 2.0 mg/mL, NZW, 37° C.): 21.3 (NZW) min; Aqueous Stability (DPBS) T1/2 after t min ([2]; t = 45): 31.6 min"
D (NZW) (>75%),D (NZW) (>75%),N#CC[C@@H](C1CCCC1)n1cc(-c2ncnc3c2ccn3COC(=O)CCCC[C@@H]2CCSS2)cn1 [Compound 40],Aqueous Stability (DPBS) % parent released after t min ([2]; t = 45): A (t = 45) (<25%)
D (NZW) (>75%),D (NZW) (>75%),C=CC(=O)N1C[C@H](Nc2ncnc3c2ccn3C(C)OC(=O)OC(C)C)CC[C@@H]1C (stereo partly drawn) [Compound 22],–
–,–,CC(C)OC(=O)n1ccc2c(-c3cnn([C@H](CC#N)C4CCCC4)c3)ncnc21 [Compound 51],Esterase (0.15 mg/mL) % parent released after 45 min (Rabbit Cornea Esterase; [5]): A (DB) (<25%); Esterase (0.45 mg/mL) % parent released after 45 min (Rabbit Cornea Esterase; [6]): B (DB) (25% to 50%); Aqueous Stability (DPBS) % parent released after t min ([2]; t = 45): A (t = 45) (<25%)
B (NZW) (25% to 50%),C (NZW) (51% to 75%),N#CC[C@@H](C1CCCC1)n1cc(-c2ncnc3c2ccn3C(=O)CCCC[C@@H]2CCSS2)cn1 [Compound 39],Aqueous Stability (DPBS) % parent released after t min ([2]; t = 45): B (t = 45) (25% to 50%)

SMILES,Esterase (0.15 mg/mL) % parent released after 45 min (Rabbit Cornea Esterase; [3]),Esterase (0.45 mg/mL) % parent released after 45 min (Rabbit Cornea Esterase; [4]),other results
CC(C)C(=O)OC(C)n1ccc2c(-c3cnn([C@H](CC#N)C4CCCC4)c3)ncnc21 (stereo partly drawn) [Compound 48],A (NZW) (<25%),A (NZW) (<25%),–
CC(C)C(=O)n1ccc2c(-c3cnn([C@H](CC#N)C4CCCC4)c3)ncnc21 [Compound 49],D NZW) (>75%),D (NZW) (>75%),–
